For eleven molecules, EC50 and CC50 results are on record in patent US11541055B2, “Inhibitors of human immunodeficiency virus replication” (ViiV Healthcare UK (No. 5) LIMITED, priority 2018, dated 2023).

The test system of data set [1] is recombinant NL4-3 virus (Renilla luciferase) in MT-2 cells. In words: HIV cell culture assay (antiviral activity, luciferase readout). The format is cell-based. The conditions noted are these: Renilla, NL43. Here is the method: HIV cell culture assay—MT-2 cells, 293T cells and the proviral DNA clone of NL4-3 virus were obtained from the NIH AIDS Research and Reference Reagent Program. MT-2 cells were propagated in RPMI 1640 media supplemented with 10% heat inactivated fetal bovine serum (FBS), […]. The 293T cells were propagated in DMEM media supplemented with 10% heat inactivated FBS, […] penicillin G and […] streptomycin. A recombinant NL40.3 proviral clone, in which a section of the nef gene was replaced with the Renilla luciferase gene, was used to make the reference virus used in these studies. The recombinant virus was prepared through transfection of the recombinant NL4-3 proviral clone into 293T cells using Transit-293 Transfection Reagent from Minis Bio LLC (Madison, Wis.). Supernatent was harvested after 2-3 days and the amount of virus present was titered in MT-2 cells using luciferase enzyme activity as a marker by measuring luciferase enzyme activity. Luciferase was quantitated using the EnduRen Live Cell Substrate from Promega (Madison, Wis.). Antiviral activities of compounds toward the recombinant virus were quantified by measuring luciferase activity in MT-2 cells infected for 4-5 days with the recombinant virus in the presence of serial dilutions of the compound.
The 50% effective concentration (EC50) was calculated by using the exponential form of the median effect equation where (Fa)=1/[1+(ED50/drug conc.)m] (Johnson V A, Byington R T. Infectivity Assay. In Techniques in HIV Research. ed. Aldovini A, Walker B D. 71-76. New York: Stockton Press. 1990). The 50% inhibitory concentration (EC50) was calculated by using the exponential form of the median effect equation where percent inhibition=1/[1+(EC50/drug concentration)m], where m is a parameter that reflects the slope of the concentration-response curve.

Data set [2] can be described thus: Compound cytotoxicity, XTT-based colorimetric assay. The format is cell-based. To be noted: human; uninfected MT2 cells, day 4, XTT. Here is the method:
Compound cytotoxicity and the corresponding CC50 values were determined using the same protocol as described in the antiviral assay except that uninfected cells were used. Cytotoxicity was assessed on day 4 in uninfected MT2 cells by using a XTT (2,3-bis[2-Methoxy-4-nitro-5-sulfophenyl]-2H-tetrazolium-5-carboxyanilide inner salt)-based colorimetric assay (Sigma-Aldrich, St Louis, Mo.).

In the case of `CC(C)c1nccc(-c2ccc3c(=O)n(-c4ccc(Cl)c5c(NS(C)(=O)=O)nn(CC(F)(F)F)c45)c([C@H](Cc4cc(F)cc(F)c4)NC(=O)Cn4nc(C(F)F)c5c4C(F)(F)[C@@H]4C[C@H]54)nc3c2)n1` (atropisomer, axis not shown) [Example 108], the EC50 in data set [1] turned out to be 0.12 nM. The 50% cytotoxic concentration (CC50) at 4 days in data set [2] was greater than 500 nM.
The matching figures for `Cc1nc(-c2ccc3c(=O)n(-c4ccc(Cl)c5c(NS(C)(=O)=O)nn(C)c45)c([C@H](Cc4cc(F)cc(F)c4)NC(=O)Cn4nc(C(F)F)c5c4C(F)(F)[C@@H]4C[C@H]54)nc3c2)cc(C(F)(F)F)n1` (atropisomer, axis not shown; (P)) [Example 63, N—((S)-1-((3P)-3-(4-chloro-1-methyl-3-(methylsulfonamido)-1H-indazol-7-yl)-7-(2-methyl-6-(trifluoromethyl)pyrimidin-4-yl)-4-oxo-3,4-dihydroquinazolin-2-yl)-2-(3,5-difluorophenyl)ethyl)-2-((3bS,4aR)-3-(difluoromethyl)-5,5-difluoro-3b,4,4a,5-tetrahydro-1H-cyclopropa[3,4]cyclopenta[1,2-c]pyrazol-1-yl)acetamide]: 0.33 nM and greater than 500 nM.
The like results for `COc1nc2ccccc2nc1-c1ccc2c(=O)n(-c3ccc(Cl)c4c(NS(C)(=O)=O)nn(C)c34)c([C@H](Cc3cc(F)cc(F)c3)NC(=O)Cn3nc(C(F)F)c4c3C(F)(F)[C@@H]3C[C@H]43)nc2c1` (atropisomer, axis not shown; (P)) [Example 19, N—((S)-1-((3P)-3-(4-chloro-1-methyl-3-(methylsulfonamido)-1H-indazol-7-yl)-7-(3-methoxyquinoxalin-2-yl)-4-oxo-3,4-dihydroquinazolin-2-yl)-2-(3,5-difluorophenyl)ethyl)-2-((3bS,4aR)-3-(difluoromethyl)-5,5-difluoro-3b,4,4a,5-tetrahydro-1H-cyclopropa[3,4]cyclopenta[1,2-c]pyrazol-1-yl)acetamide] were, in that order, 5.5 nM and greater than 500 nM.
The matching figures for `O=C(Cn1nc(C(F)F)c2c1C(F)(F)[C@@H]1C[C@H]21)N[C@@H](Cc1cc(F)cc(F)c1)c1nc2cc(-c3nccc(C(F)(F)F)n3)ccc2c(=O)n1-c1ccc(Cl)c2c(NS(=O)(=O)C3CC3)nn(CC(F)F)c12` (atropisomer, axis not shown; (P)) [Example 84, N—((S)-1-((3P)-3-(4-chloro-3-(cyclopropanesulfonamido)-1-(2,2-difluoroethyl)-1H-indazol-7-yl)-4-oxo-7-(4-(trifluoromethyl)pyrimidin-2-yl)-3,4-dihydroquinazolin-2-yl)-2-(3,5-difluorophenyl)ethyl)-2-((3bS,4aR)-3-(difluoromethyl)-5,5-difluoro-3b,4,4a,5-tetrahydro-1H-cyclopropa[3,4]cyclopenta[1,2-c]pyrazol-1-yl)acetamide]: 0.22 nM and greater than 500 nM.
Take `CC(C)c1nccc(-c2ccc3c(=O)n(-c4ccc(Cl)c5c(NS(=O)(=O)C6CC6)nn(CC(F)F)c45)c([C@H](Cc4cc(F)cc(F)c4)NC(=O)Cn4nc(C(F)F)c5c4C(F)(F)[C@@H]4C[C@H]54)nc3c2)n1` (atropisomer, axis not shown; (P)) [Example 91, N—((S)-1-((3P)-3-(4-chloro-3-(cyclopropanesulfonamido)-1-(2,2-difluoroethyl)-1H-indazol-7-yl)-7-(2-isopropylpyrimidin-4-yl)-4-oxo-3,4-dihydroquinazolin-2-yl)-2-(3,5-difluorophenyl)ethyl)-2-((3bS,4aR)-3-(difluoromethyl)-5,5-difluoro-3b,4,4a,5-tetrahydro-1H-cyclopropa[3,4]cyclopenta[1,2-c]pyrazol-1-yl)acetamide]: the EC50 in data set [1] worked out at 0.19 nM. The molecule also yielded a CC50 at 4 days in data set [2] greater than 500 nM.
Take `Cc1nnc(-c2ccc3c(=O)n(-c4ccc(Cl)c5c(NS(C)(=O)=O)nn(CC(F)F)c45)c([C@H](Cc4cc(F)cc(F)c4)NC(=O)Cn4nc(C(F)F)c5c4C(F)(F)[C@@H]4C[C@H]54)nc3c2)nc1C` (atropisomer, axis not shown) [Example 133, N-[(1S)-1-{3-[4-chloro-1-(2,2-difluoroethyl)-3-methanesulfonamido-1H-indazol-7-yl]-7-(5,6-dimethyl-1,2,4-triazin-3-yl)-4-oxo-3,4-dihydroquinazolin-2-yl}-2-(3,5-difluorophenyl)ethyl]-2-[(2S,4R)-9-(difluoromethyl)-5,5-difluoro-7,8-diazatricyclo[4.3.0.0^2,^4]nona-1(6),8-dien-7-yl]acetamide]: in data set [1], the EC50 came to 0.04 nM. The same molecule showed a CC50 at 4 days in data set [2] greater than 500 nM.
With `CN(c1ccc(-c2ccc3c(=O)n(-c4ccc(Cl)c5c(NS(=O)(=O)C6CC6)nn(CC(F)F)c45)c([C@H](Cc4cc(F)cc(F)c4)NC(=O)Cn4nc(C(F)F)c5c4C(F)(F)[C@@H]4C[C@H]54)nc3c2)cc1)S(C)(=O)=O` (atropisomer, axis not shown) [Example 147, N-[(1S)-1-{3-[4-chloro-3-cyclopropanesulfonamido-1-(2,2-difluoroethyl)-1H-indazol-7-yl]-7-[4-(N-methylmethanesulfonamido)phenyl]-4-oxo-3,4-dihydroquinazolin-2-yl}-2-(3,5-difluorophenyl)ethyl]-2-[(2S,4R)-9-(difluoromethyl)-5,5-difluoro-7,8-diazatricyclo[4.3.0.0^2,^4]nona-1(6),8-dien-7-yl]acetamide], the EC50 in data set [1] came out at 0.34 nM. Further, in data set [2], the CC50 at 4 days was greater than 500 nM.
The like results for `CCOc1cc(-c2ccc3c(=O)n(-c4ccc(Cl)c5c(NS(C)(=O)=O)nn(C)c45)c([C@H](Cc4cc(F)cc(F)c4)NC(=O)Cn4nc(C(F)F)c5c4C(F)(F)[C@@H]4C[C@H]54)nc3c2)nc(C)n1` (atropisomer, axis not shown; (P)) [Example 69, N—((S)-1-((3P)-3-(4-chloro-1-methyl-3-(methylsulfonamido)-1H-indazol-7-yl)-7-(6-ethoxy-2-methylpyrimidin-4-yl)-4-oxo-3,4-dihydroquinazolin-2-yl)-2-(3,5-difluorophenyl)ethyl)-2-((3bS,4aR)-3-(difluoromethyl)-5,5-difluoro-3b,4,4a,5-tetrahydro-1H-cyclopropa[3,4]cyclopenta[1,2-c]pyrazol-1-yl)acetamide] were, in that order, 0.43 nM and greater than 500 nM.
The like results for `Cn1nc(NS(C)(=O)=O)c2c(Cl)ccc(-n3c([C@H](Cc4cc(F)cc(F)c4)NC(=O)Cn4nc(C(F)F)c5c4C(F)(F)[C@@H]4C[C@H]54)nc4cc(-c5ncccc5F)ccc4c3=O)c21` (atropisomer, axis not shown; (P)) [Example 21, N—((S)-1-((3P)-3-(4-chloro-1-methyl-3-(methylsulfonamido)-1H-indazol-7-yl)-7-(3-fluoropyridin-2-yl)-4-oxo-3,4-dihydroquinazolin-2-yl)-2-(3,5-difluorophenyl)ethyl)-2-((3bS,4aR)-3-(difluoromethyl)-5,5-difluoro-3b,4,4a,5-tetrahydro-1H-cyclopropa[3,4]cyclopenta[1,2-c]pyrazol-1-yl)acetamide] were, in that order, 0.091 nM and greater than 500 nM.
The like results for `Cc1ncc(F)c(-c2ccc3c(=O)n(-c4ccc(Cl)c5c(NS(C)(=O)=O)nn(C)c45)c([C@H](Cc4cc(F)cc(F)c4)NC(=O)Cn4nc(C(F)F)c5c4C(F)(F)[C@@H]4C[C@H]54)nc3c2)n1` (atropisomer, axis not shown; (P)) [Example 64, N—((S)-1-((3P)-3-(4-chloro-1-methyl-3-(methylsulfonamido)-1H-indazol-7-yl)-7-(5-fluoro-2-methylpyrimidin-4-yl)-4-oxo-3,4-dihydroquinazolin-2-yl)-2-(3,5-difluorophenyl)ethyl)-2-((3bS,4aR)-3-(difluoromethyl)-5,5-difluoro-3b,4,4a,5-tetrahydro-1H-cyclopropa[3,4]cyclopenta[1,2-c]pyrazol-1-yl)acetamide] were, in that order, 0.093 nM and greater than 500 nM.
Regarding `CS(=O)(=O)Nc1nn(CC(F)(F)F)c2c(-n3c([C@H](Cc4cc(F)cc(F)c4)NC(=O)Cn4nc(C(F)F)c5c4C(F)(F)[C@@H]4C[C@H]54)nc4cc(-c5ncccc5S(C)(=O)=O)ccc4c3=O)ccc(Cl)c12` (atropisomer, axis not shown) [Example 112], the EC50 in data set [1] amounted to 0.075 nM. In data set [2], this molecule gave a CC50 at 4 days greater than 500 nM.
